Reference: the supplement of paper PMC10307832

Key:
Experiment in all cases: relative viability (nuclei count vs DMSO), 5 days (fraction); higher = more cells survive
[1] = compound: C1=CC2=C(C=C(C(=C2N=C1)O)N=NC3=CC4=C(C=C3)C=C(C=C4)S(=O)(=O)O)S(=O)(=O)O
Outline: (§1)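 Hoechst staining, done together with fixation and permeabilisation, marked nuclei for 4× imaging and MetaXpress counting. This followed 5 days without medium change after lung cancer cell lines, kept overnight at 37 °C in 1536-well plates, were pinned with five library-drug doses (not always all listed) spaced by √10 on vehicle-anchored plates. Viability is the ratio of treated-well to vehicle-well nuclei, expressed as a median across plates. Plates passed only at control CV below 25% with at least one doubling.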

AT-7519 = compound: O=C(NC1CCNCC1)c1n[nH]cc1NC(=O)c1c(Cl)cccc1Cl [AT-7519]
Outline: as §1

[2] = compound: C1=CC2=C(C=C(C(=C2N=C1)O)N=NC3=CC4=C(C=C3)C=C(C=C4)S(=O)(=O)O)S(=O)(=O)O + Cc1nc(NC(=O)N2CCC[C@H]2C(N)=O)sc1-c1ccnc(C(C)(C)C(F)(F)F)c1 [Alpelisib] (partner 2 µM)
Outline: (§2)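 Cells from lung cancer lines were seeded into 1536-well plates and, one day later, dosed by pin tool. Treatments were either a single drug or a fixed dose of an anchor drug with five library-drug doses (not always all listed) in √10 steps. After 5 days, nuclei were stained in a one-step fixation (final 0.05% Triton X-100, 1% formaldehyde, 1 ug/ml Hoechst) and counted on 4× images, and relative viability is the treated-to-vehicle nuclei ratio, as the median of duplicate plates.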

AT-7519 + Bortezomib = compound: O=C(NC1CCNCC1)c1n[nH]cc1NC(=O)c1c(Cl)cccc1Cl [AT-7519] + CC(C)C[C@H](NC(=O)[C@H](Cc1ccccc1)NC(=O)c1cnccn1)B(O)O [Bortezomib] (partner 0.002 µM)
Outline: as §2

Cell Line | relative viability ([1]; 0.08 µM) | relative viability ([1]; 0.253 µM) | relative viability ([1]; 0.8 µM) | relative viability ([1]; 2.53 µM) | relative viability ([1]; 8 µM) | relative viability (AT-7519; 0.01 µM) | relative viability (AT-7519; 0.03162 µM) | relative viability (AT-7519; 0.3162 µM) | relative viability (AT-7519; 1 µM) | relative viability ([2]; first compound 0.08 µM) | relative viability ([2]; first compound 0.253 µM) | relative viability ([2]; first compound 0.8 µM) | relative viability ([2]; first compound 2.53 µM) | relative viability ([2]; first compound 8 µM) | relative viability (AT-7519 + Bortezomib; first compound 0.01 µM) | relative viability (AT-7519 + Bortezomib; first compound 0.03162 µM) | relative viability (AT-7519 + Bortezomib; first compound 1 µM) | relative viability (AT-7519 + Bortezomib; first compound 0.3162 µM)
SK-LU-1 | 1.17 | 1.02 | 1.02 | 0.979 | 0.988 | 1.08 | 0.959 | 0.924 | 0.73 | 1.06 | 0.968 | 0.98 | 1.1 | 1.18 | 1.08 | 1.14 | 1.15 | 
NCI-H1299 | 1.02 | 1.01 | 1 | 1.04 | 1 | 1.05 | 1.02 | 1.02 | 1.18 | 0.985 | 1.04 | 1.01 | 0.997 | 1.05 | 1.05 | 0.996 | 1.28 | 1.05
NCI-H2009 | 1.02 | 0.987 | 1.03 | 1.01 | 0.922 | 1.06 | 0.969 | 1.02 | 0.78 | 1.19 | 1.05 | 1.1 | 1.16 | 1.1 | 1.08 | 0.908 | 0.704 | 0.96
LOU-NH91 | 0.964 | 0.978 | 0.99 | 0.989 | 0.948 | 0.93 | 0.963 | 0.956 | 0.933 | 0.783 | 0.744 | 0.703 | 0.761 | 0.675 | 0.541 | 0.541 | 0.478 | 0.468
NCI-H2405 | 0.972 | 0.919 | 0.984 | 1.02 | 0.877 | 0.987 | 0.973 | 1.01 | 0.812 | 0.805 | 0.758 | 0.838 | 0.886 | 0.722 | 0.978 | 1.04 | 0.863 | 1.02
LCLC-97TM1 | 1.16 | 0.873 | 0.833 | 0.926 | 0.999 | 0.918 | 0.892 | 0.844 | 0.47 |  | 0.296 |  | 0.248 | 0.296 | 1.22 | 0.58 | 0.123 | 0.379
NCI-H596 | 1.06 | 0.987 | 0.982 | 1.03 | 1.01 | 0.928 | 0.925 | 1.04 | 0.912 | 0.48 | 0.454 | 0.575 | 0.475 | 0.482 | 1.08 | 1.13 | 1.03 | 0.882
NCI-H727 | 1.15 | 0.921 | 0.923 | 0.958 | 0.941 | 0.954 | 0.802 | 0.849 | 0.447 | 0.547 | 0.578 | 0.537 | 0.609 | 0.567 | 0.973 | 0.837 | 0.526 | 0.573
H3255 | 1.01 | 0.965 | 1.01 | 1.03 | 1.04 | 1.04 | 0.96 | 0.969 | 0.838 | 0.82 | 0.698 | 0.717 | 0.775 | 0.712 | 0.904 | 0.825 | 0.766 | 0.984
NCI-H1437 | 1 | 1 | 0.988 | 1.05 | 0.912 | 0.985 | 0.99 | 0.999 | 0.879 | 1.06 | 0.995 | 0.935 | 0.94 | 0.929 | 0.448 | 0.514 | 0.307 | 0.494
LU99A | 1.02 | 0.936 | 0.901 | 0.95 | 0.948 | 1.02 | 0.857 | 0.826 | 0.974 | 0.608 | 0.488 | 0.422 | 0.582 | 0.514 | 1.15 | 1.07 | 0.988 | 1.14
HCC-827 | 1.08 | 0.997 | 1.01 | 1.02 | 1.04 | 1.04 | 1.04 | 1.02 | 0.997 | 1.05 | 0.989 | 0.807 | 0.978 | 1.05 | 1.1 | 1.1 | 1.06 | 1.05
HCC-366 | 1.04 | 0.964 | 0.993 | 0.997 | 0.897 | 1.06 | 1.03 | 0.993 | 0.926 | 0.386 | 0.344 | 0.389 | 0.401 | 0.439 | 1.26 | 0.864 | 0.442 | 1.07
BEN | 0.976 | 0.933 | 0.895 | 0.986 | 0.777 | 0.917 | 0.876 | 1.15 | 0.887 | 1.26 | 0.962 | 0.847 | 1.04 | 0.932 | 0.958 | 0.766 | 0.82 | 0.935
NCI-H23 | 0.912 | 0.873 | 0.932 | 1.04 | 0.9 | 0.856 | 0.858 | 0.912 | 0.616 | 0.753 | 0.676 | 0.614 | 0.705 | 0.807 | 0.983 | 1.04 | 0.504 | 0.852
201T | 1.01 | 0.995 | 0.985 | 1.03 | 0.982 | 1.02 | 0.988 | 1.04 | 1.11 | 1.02 | 0.991 | 0.995 | 1.06 | 1.03 | 1.08 | 1.03 | 1.09 | 1.1
NCI-H460 | 1.07 | 0.992 | 0.977 | 0.987 | 0.945 | 1 | 0.89 | 0.982 | 0.601 | 0.545 | 0.456 | 0.511 | 0.5 | 0.291 | 1.05 | 0.91 | 0.046 | 0.533
NCI-H661 | 1.02 | 1 | 0.969 | 1.01 | 0.967 | 1.04 | 0.874 | 1.02 | 0.648 | 0.746 | 0.467 | 0.54 | 0.703 | 0.967 | 0.743 | 0.755 | 0.567 | 0.786
HCC-15 | 1.14 | 1 | 1.03 | 0.97 | 0.963 | 1.03 | 0.911 | 0.897 | 0.754 | 0.97 | 0.811 | 0.807 | 0.895 | 0.938 | 1.07 | 1.01 | 0.977 | 0.852
NCI-H1563 | 1.09 | 0.96 | 0.995 | 0.949 | 0.878 | 0.955 | 0.934 | 1.02 | 0.998 | 0.931 | 0.94 | 1.07 | 1.11 | 1.1 | 0.874 | 0.905 | 0.85 | 0.901
ABC-1 | 0.923 | 0.743 | 0.744 | 1.08 | 0.776 | 1.1 | 0.876 | 0.787 | 0.699 | 1.14 | 0.967 | 1.03 | 0.869 | 1.22 | 0.291 | 0.337 | 0.231 | 0.259
LCLC-103H | 1.02 | 0.998 | 0.976 | 1.02 | 1.03 | 1.08 | 0.983 | 1.01 | 1.07 | 1 | 0.948 | 0.945 | 0.899 | 1.14 | 1.01 | 1.05 | 1.2 | 1.07
NCI-H441 | 1.16 | 0.942 | 0.898 | 1.06 | 0.947 | 1.03 | 1.02 | 1.05 | 0.523 | 0.823 | 0.823 |  | 0.736 | 1.09 | 0.449 | 0.394 | 0.497 | 0.671
EPLC-272H | 1.03 | 0.901 | 0.949 | 0.879 | 0.743 | 0.889 | 0.84 | 0.844 | 0.761 | 0.996 | 0.831 | 0.876 | 0.963 | 0.944 | 1.03 | 0.973 | 0.812 | 0.723
